The numbers were not newly measured in patent publication US12612577B2, “Perfumed compositions, process of preparing thereof and uses” (MINASOLVE SAS, priority 2019, dated 2026), which cites them from elsewhere.

For the data set, the system named is bacteria and fungi. The note with it: against bacteria and fungi.

With `CCCC(O)CO` (stereo not shown) [1,2-pentanediol], the “minimum inhibitory concentration (MIC)” value is recorded as 5%.
